Laboratory results published in article PMC5412445, “ZeGlobalTox: An Innovative Approach to Address Organ Drug Toxicity Using Zebrafish” (International Journal of Molecular Sciences, 2017).
Read-outs that look alike come from different tables or passages of the source.

Columns and labels:
[1] = tested on: zebrafish larvae heart; test: ZeGlobalTox cardiotoxicity evaluation (heart video, ZeCardio software); type: in vivo, zebrafish (Danio rerio); conditions: 100 hpf, 4 h after drug incubation at NOEC (haloperidol 10 µM)
Protocol: Four cardiac parameters were evaluated to assess whether a compound was cardiotoxic: heart rate (beats per minute, BPM), QTc prolongation, ejection fraction (EJF), and cardiac arrest. […] 1% DMSO was used as the negative control.
Cardiotoxicity evaluation was performed from 96 hpf, when the zebrafish heartbeat is already stabilised, so the analysis might not be altered by unstable beating. Zebrafish hearts were video-recorded at 4 h after drug incubation (100 hpf) and analysed using the ZeCardio® β software (Figure 3A).
After 4 h of drug incubation (100 hpf), zebrafish larvae were anesthetized by immersion in […] tricaine methanesulfonate (A4050, Sigma-Aldrich, Saint Louis, MO, USA)/E3 solution. […] The 1% DMSO treated embryos were used as negative cardiotoxic controls. Embryos were positioned in an agarose based mold to allow their appropriate orientation under the fluorescence stereo microscope (Olympus MVX10). Individual fluorescent hearts were recorded during 60 s each (Figure 6A). Videos were acquired with a high-speed recording camera (Hamamatsu C11440 ORCA-flash 2.8) and analysed with the ZeCardio® β software to extract different cardiac parameters—heart rate, cardiac arrest, QTc prolongation, and Ejection Fraction (EJF) (Figure 6B).
ZeCardio® β software, developed by ZeClinics and currently in β status, provides a graphical user interface (GUI) that facilitates the semi-automatic analysis of living heart videos. Interactive analysis of the different parameters functions as follows: The user draws a line along the heart axis, from ventricle to atrium, to initiate the calculation. […] All lines can be subjected to modification of their angles and lengths.
Heart beat frequency for each chamber is detected and frequencies are presented in the GUI as a mean. A plot distribution is used for assessing beat stability over time (Figure 6F). In the same fashion, chamber specific cardiac arrest is measured as the longest beating pause (Figure 6H). No beating chambers and/or incorrect bpm can be manually flagged when detected.
For calculation of the QTc interval (linearly corrected QT interval), the Framingham formula (QTc = QT + 0.154 (1 − RR)) was adjusted for zebrafish as QTc = QT + 0.154 (2.66 − RR). RR = 6.6 ms/measured bpm is applied (Figure 6G). Finally, the Ejection Fraction, calculated as the maximal dilatation (the diastolic diameter, DD) versus the maximal contraction (systolic diameter, SD) is measured in % as EF% = (DD − SD)/DD*100 (Figure 6G). Computed values for the described parameters were exported in .csv format (Figure 6H).

[2] = in vivo; type: in vivo; conditions: zebrafish, in vivo; mortality; embryos incubated 3 to 96 hpf; 5 logarithmic concentrations 0.1 µM to 1 mM; 1% DMSO
Source text: (§1) Several issues were considered when planning the experimental protocol. The main concern was that drug-induced mortality and/or developmental toxicity (teratogenicity) could mask possible organ-toxicities appearing later in development. […] This preliminary assay allowed for the identification of non-mortal/non-teratogenic concentrations—no observed effect concentration (NOEC)—to use in the following assays. The hypothesis is that NOEC could affect organ physiology (organ toxicity), while uncoupled from putative developmental toxicity side-effects affecting organ development or function. Another consideration was to start drug incubations at 96 hours post fertilization (hpf), when the analysed organs are close to or already developed (Figure 1B). The overall aim is to understand the drug impact on organ physiology and function rather than early embryogenesis. The third consideration was to organize the sequential organ evaluation during the experimental and drug incubation time.
(§2) 1% DMSO, which is the constant solvent concentration in all conditions, was used as the negative control.
(§3) Thus, 20 wild type (wt) zebrafish embryos per condition were incubated with tested compounds from 3 to 96 hpf. The test was performed in 5 logarithmic concentrations per drug (from 0.1 µM to 1 mM). Each larva was analysed for mortality, body deformity, edema, tail detachment, pigmentation, heart activity, heart edema, and motor activity. […] DMSO 1% was used as the negative control in all experiments.

[3] = tested on: humans; conditions: cited from earlier work
[4] = tested on: wild type zebrafish embryos; test: in vivo; type: in vivo; conditions: embryos incubated 3 to 96 hpf; 5 logarithmic concentrations 0.1 µM to 1 mM; 1% DMSO
Source text: as §1, §2, §3

[5] = tested on: zebrafish larvae liver; test: ZeGlobalTox hepatotoxicity: Oil Red O staining (steatosis and yolk lipid accumulation); conditions: 132 hpf; for Percentage of larvae presenting steatosis: 36 h drug incubation at NOEC (EtOH 2%, MPTP 100 µM), DMSO 24.44%
Protocol: In order to assess drugs producing steatosis and yolk lipid accumulation, and subsequent to the RFP filtered images being acquired, zebrafish larvae were stained with Oil Red O. Larvae and were sorted into steatosis positive or negative, yolk lipid accumulation, or both (see materials and methods).
For the ZeGlobalTox assay, fertilized Tg(cmlc2:GFP; fabp10:RFP; ela31:EGFP) zebrafish embryos were collected in E3 medium (5 mM NaCl, 0.17 mM KCl, 0.33 mM CaCl2, 0.33 mM, MgSO4) in Petri dishes. At 3, 24, and 48 hpf, dishes were observed and all not fertilized, abnormal, or coagulated eggs were discarded. At 96 hpf, 20 larvae per condition were incubated with the NOECs from the different drugs and allowed to develop until 132 hpf at 28.5 °C.
After 36 h of drug incubation (132 hpf), embryos are fixed in 4% paraformaldehyde (158127-500G, Sigma-Aldrich, Saint Louis, MO, USA) for 2–4 h at room temperature (RT) and then are 3× washed with PBS.
In order to detect the presence of steatosis and yolk lipid retention, zebrafish larvae were stained with Oil Red O (O0625-25G, Sigma-Aldrich, Saint Louis, MO, USA) as described in [77]. Briefly, the skin pigment from fixed larvae is removed by incubating with bleaching solution (for 10 mL: 6 mL H2O, 0.25 mL 20× SSC, 0.5 mL formamide, 3.3 mL H2O2) during 20 min at RT. Then, the larvae are 5× washed with PBS. Bleached embryos are first submerged in 85% Propylene glycol (PG) (134368-1L, Sigma-Aldrich, Saint Louis, MO, USA) for 10 min and then in 100% PG for another 10 min before staining them with Oil Red O 0.5% in 100% PG (overnight, at RT and with gentle rocking). Oil Red O stained embryos are washed in 100% PG for 30 min, 50 min in 85% PG, and 40 min in 85% PG with an equal volume of PBS. Finally, embryos are washed 1× with PBS before adding 80% glycerol (G7757-500ML, Sigma-Aldrich, Saint Louis, MO, USA). Bright field images are taken to detect both steatosis and yolk lipid accumulation. […] Yolk lipid retention is considered positive when a red strong signal is observed in the yolk area (Figure 5F).
DMSO 1% treated larvae were used as the negative control group.

[6] = tested on: zebrafish larvae; test: ZeGlobalTox neurotoxicity evaluation (locomotion, light/dark trial); type: in vivo, zebrafish (Danio rerio); conditions: 120 hpf, drug from 96 hpf at NOEC (MPTP 100 µM, paracetamol 2600 µM)
Protocol: By 5 dpf, zebrafish larvae perform spontaneous swimming and their visual system is fully developed. Therefore, behavioural experiments were performed from this time point (Figure 4A). Deviations in total distance moved, in response to photo-visual stimulation, were analysed as a direct measurement of neurotoxicity. Thus, drugs increasing or decreasing total distance moved when compared to the DMSO-only group were considered neurotoxic. As the positive neurotoxic control we used MPTP, which has been identified as a neurotoxic drug in humans and zebrafish.
Immediately after heart video acquisition, larvae are washed with E3 medium to remove tricaine methanesulfonate from the solution. Fresh drug solution is added and the larvae are transferred individually in a volume of 150 µL to 96 well plates.
Neurotoxicity is analysed at 120 hpf by locomotion assessment using the EthoVision XT 11.5 software and the DanioVision device from Noldus Information Technologies, Wageningen, The Netherlands. This closed system consists of a camera placed above a chamber with circulating water and a temperature sensor set at 28 °C. The 96-well plates are placed in the chamber, which can then be illuminated with white light using the software. Larvae are then left for 20 min under these conditions and with the lights on to help their acclimation. Finally, larvae locomotion is measured during 50′ under the following light/dark conditions: 10′ darkness-10′ Light-10′ darkness-10′ Light-10′ darkness. Total distance moved (in mm) is acquired under this light/dark trial. Due to circadian rhythms, all locomotion assays were performed from 13:00 pm onwards to ensure steady activity of the zebrafish.
Neurotoxicity is assessed by comparing locomotion differences among the tested compounds (solved in DMSO) and the negative control group (DMSO 1%-only).

[7] = known toxicity in humans, ref TOXNET (HSDB), Side effects (EMBL), drugs.com, [22],[30],[31],[34],[35]
[8] = known toxicity in humans, ref TOXNET (HSDB), Side effects (EMBL), drugs.com, ema.europa, [19],[20],[21]
[9] = known toxicity in humans, ref TOXNET (HSDB), Side effects (EMBL), drugs.com, ema.europa, [24],[26],[27],[32],[33]

Row | Structure (SMILES) | LC50 [2] [µM] | Neurotoxicity (toxicity in humans) [3, 7] | Cardiotoxicity (toxicity in humans) [3, 8] | Hepatotoxicity (toxicity in humans) [3, 9] | 96 hpf NOEC [4] [µM] | 96 hpf LOEC [4] [µM] | other results
1 | O=C(O)c1cn(C2CC2)c2cc(N3CCNCC3)c(F)cc2c1=O [Ciprofloxacin, ciprofloxacin] | – | – | – | – | – | – | Heart rate (beats per minute) compared to DMSO-only [1]: increased heart rates; Longest cardiac arrest compared to DMSO-only [1]: no differences
2 | COc1cc(N)c(Cl)cc1C(=O)NC1CCN(CCCOc2ccc(F)cc2)CC1OC (centres unmarked) [Cisapride, cisapride] | > 1000 | Safe | Toxic ^1,3 | Safe | – | – | Heart rate (beats per minute) compared to DMSO-only [1]: decreased the heart rate; Longest cardiac arrest compared to DMSO-only [1]: Longer cardiac arrest
3 | OC[C@H]1OC(O)[C@H](O)[C@@H](O)[C@@H]1O (stereo partly drawn) [D-(+)-glucose] | – | – | – | – | 1000.00 | – | Cardiotoxicity (toxicity in humans) ([3]; in vivo): Safe; Hepatotoxicity (toxicity in humans) ([3]; in vivo): Safe; Neurotoxicity (toxicity in humans) ([3]; in vivo): Safe
4 | CCN(CC)c1ccc(C=O)cc1 [DEAB, 4-diethylaminobenzaldehyde] | 186 | – | – | – | 1.00 | 10.00 | –
5 | C[C@]12CC[C@H](O)C[C@H]1CC[C@@H]1[C@@H]2C[C@@H](O)[C@]2(C)[C@@H](C3=CC(=O)OC3)CC[C@]12O [Digoxigenin, digoxigenin] | – | – | Toxic ^1 | – | 100.00 | 1000.00 | Percentage of larvae presenting steatosis [5]: 55%
6 | CC(=O)O[C@@]12CO[C@@H]1C[C@H](O)[C@@]1(C)C(=O)[C@H](O)C3=C(C)[C@@H](OC(=O)[C@H](O)[C@@H](NC(=O)OC(C)(C)C)c4ccccc4)C[C@@](O)([C@@H](OC(=O)c4ccccc4)[C@H]21)C3(C)C [Docetaxel, docetaxel] | – | Toxic ^1,2,3 | Toxic ^2,3 | Toxic ^1,2,3 | – | 100.00 | Heart rate (beats per minute) compared to DMSO-only [1]: decreased the heart rate; Longest cardiac arrest compared to DMSO-only [1]: Longer cardiac arrest; Motility (total distance moved) compared to DMSO [6]: increased motility
7 | CN(CCOc1ccc(NS(C)(=O)=O)cc1)CCc1ccc(NS(C)(=O)=O)cc1 [Dofetilide, dofetilide] | – | Safe | Toxic ^1,2,3 | Safe | – | 100.00 | Heart rate (beats per minute) compared to DMSO-only [1]: decreased the heart rate; Longest cardiac arrest compared to DMSO-only [1]: Longer cardiac arrest
8 | CCO [Ethanol] | – | Toxic ^1 | Toxic ^1 | Toxic [26, 27] | – | – | –
9 | CC(C)(C)NC(=O)[C@H]1CC[C@H]2[C@@H]3CC[C@H]4NC(=O)C=C[C@]4(C)[C@H]3CC[C@]12C [Finasteride, finasteride] | 31.6 | Safe | Safe | Safe | – | 100.00 | Percentage of larvae presenting steatosis [5]: 65%
10 | CCOC(=O)Nc1ccc(NCc2ccc(F)cc2)nc1N [Flupirtine, flupirtine] | 136 | Safe | Safe | Toxic ^4 | 10.00 | 100.00 | –
11 | CC(=O)O[C@H]1C[C@@]2(C)[C@@H](C[C@@H](O)[C@H]3[C@@]4(C)CC[C@@H](O)[C@@H](C)[C@@H]4CC[C@@]32C)/C1=C(\CCC=C(C)C)C(=O)O [Fusidic Acid, fusidic acid] | 124 | Safe | Safe | Toxic [32, 33] | – | 100.00 | –
12 | O=C(CCCN1CCC(O)(c2ccc(Cl)cc2)CC1)c1ccc(F)cc1 [Haloperidol] | – | Toxic ^1,2,3 | Toxic ^1,2,3 [19, 20, 21] | Safe | – | – | Heart rate (beats per minute) compared to DMSO-only [1]: decreased the heart rate; QTc interval compared to DMSO-only [1]: QTc interval prolongation
13 | NNC(=O)c1ccncc1 [Isoniazid, isoniazid] | – | Toxic ^1,2,3 | Safe | Toxic ^1,2,3 | 1000.00 | – | Percentage of larvae presenting steatosis [5]: 60%
14 | N[C@@H](CS)C(=O)O [L-Cysteine, L-cysteine] | – | – | – | – | 1000.00 | – | –
15 | NC(=O)CC[C@H](N)C(=O)O [L-Glutamine, L-glutamine] | – | Safe | Safe | Safe | – | – | –
16 | C[C@](N)(Cc1ccc(O)c(O)c1)C(=O)O [Methyldopa, methyldopa] | – | Toxic ^1,3 | Safe | Toxic ^1,2,3 | 1000.00 | – | Percentage of larvae presenting yolk lipid retention ([5]; 36 h drug incubation at NOEC (paracetamol 2600 µM), DMSO 22.22%): 50%
17 | [Cl-].[Na+] [NaCl, sodium chloride] | – | Safe | Safe | Safe | 1000.00 | – | –
18 | Cc1ccc(C(=O)Nc2ccc(S(=O)(=O)O)c3cc(S(=O)(=O)O)cc(S(=O)(=O)O)c23)cc1NC(=O)c1cccc(NC(=O)Nc2cccc(C(=O)Nc3cc(C(=O)Nc4ccc(S(=O)(=O)O)c5cc(S(=O)(=O)O)cc(S(=O)(=O)O)c45)ccc3C)c2)c1 [Suramin, suramin] | 197 | Toxic [34, 35] | Safe | Safe | – | 1000 | –
